Structures can show the parent of a compound that is named as a salt. Where two headings read alike, the source gives them in different places.
What was measured:
Bcl-2 protein = Bcl-2 protein (histag-Bcl-2, UniProtKB P10415) (Homo sapiens (Human), UniProt P10415); test: Inhibition of Bcl-2 by the fluorescence polarisation technique; assay type: binding; settings: incubation for 2 hours, read-out: IC50 (nM) Bcl-2 FP
Procedure: The fluorescence polarisation tests were carried out on microplates (384 wells). The Bcl-2 protein, labelled (histag-Bcl-2 such that Bcl-2 corresponds to the UniProtKB® primary accession number: P10415), at a final concentration of 2.50×10^−8 M, is mixed with a fluorescent peptide (Fluorescein-[…]), at a final concentration of 1.00×10^−8 M in a buffer solution (Hepes 10 mM, NaCl 150 mM, Tween20 0.05%, pH 7.4), in the presence or absence of increasing concentrations of test compounds. After incubation for 2 hours, the fluorescence polarisation is measured.

[1] = test system: RS4;11 leukaemia tumour line; test: In vitro cytotoxicity (Microculture Tetrazolium Assay); assay type: cell-based; settings: Homo sapiens, RS4;11 cells, exposed for 48 hours, cell viability, read-out: IC50 (nM) MTT RS4;11
Procedure: The cytotoxicity studies were carried out on the RS4;11 leukaemia tumour line.
The cells are distributed onto microplates and exposed to the test compounds for 48 hours.
The cell viability is then quantified by a colorimetric assay, the Microculture Tetrazolium Assay (Cancer Res., 1987, 47, 939-942).

Bcl-2 protein, sequence (P10415 whole entry): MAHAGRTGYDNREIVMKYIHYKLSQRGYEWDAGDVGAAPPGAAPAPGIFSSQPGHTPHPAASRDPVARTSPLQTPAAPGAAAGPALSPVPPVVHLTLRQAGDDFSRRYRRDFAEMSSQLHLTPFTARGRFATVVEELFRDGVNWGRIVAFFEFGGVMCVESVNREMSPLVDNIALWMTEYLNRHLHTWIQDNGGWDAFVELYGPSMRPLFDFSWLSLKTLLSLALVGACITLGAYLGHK

IC50 (Bcl-2 protein) | Structure (SMILES) | IC50 ([1]; RS4-11, 48 h) | IC50 [1]
4.1 nM | CNCCn1c(-c2cc3c(cc2C(=O)N2Cc4ccccc4C[C@H]2C)OCO3)cc(C(=O)N(c2ccc(O)cc2)c2cnn(C)c2)c1C [Example 26, N-(4-Hydroxyphenyl)-2-methyl-1-[2-(methylamino)ethyl]-5-(6-{[(3R)-3-methyl-3,4-dihydroisoquinolin-2(1H)-yl]carbonyl}-1,3-benzodioxol-5-yl)-N-(1-methyl-1H-pyrazol-4-yl)-1H-pyrrole-3-carboxamide hydrochloride] | 541 nM | 
5.2 nM | Cc1c(C(=O)N(c2ccc(O)cc2)c2cnn(C)c2)cc(-c2cc3c(cc2C(=O)N2Cc4ccccc4C[C@H]2C)OCO3)n1CCN(C)C [Example 27, 1-[2-(Dimethylamino)ethyl]-N-(4-hydroxyphenyl)-2-methyl-5-(6-{[(3R)-3-methyl-3,4-dihydroisoquinolin-2(1H)-yl]carbonyl}-1,3-benzodioxol-5-yl)-N-(1-methyl-1H-pyrazol-4-yl)-1H-pyrrole-3-carboxamide hydrochloride] | 93.4 nM | 
7.5 nM | Cc1c(C(=O)N(c2ccncc2)c2ccc(O)cc2)cc(-c2cc(Cl)ccc2C(=O)N2Cc3ccccc3C[C@H]2C)n1C [Example 28, 5-(5-Chloro-2-{[(3R)-3-methyl-3,4-dihydroisoquinolin-2(1H)-yl]carbonyl}phenyl)-N-(4-hydroxyphenyl)-1,2-dimethyl-N-(pyridin-4-yl)-1H-pyrrole-3-carboxamide hydrochloride] | 95.3 nM | 
6.6 nM | CC1=C(C(=O)N(c2ccccc2)c2ccc(O)cc2)CC(c2cc(Cl)ccc2C(=O)N2Cc3ccccc3C[C@H]2COCCN2CCOCC2)N1C (stereo partly drawn) [Example 29, 5-(5-Chloro-2-{[(3S)-3-{[2-(morpholin-4-yl)ethoxy]methyl}-3,4-dihydroisoquinolin-2(1H)-yl]carbonyl}phenyl)-N-(4-hydroxyphenyl)-1,2-dimethyl-N-phenyl-4H-pyrrole-3-carboxamide hydrochloride] | 47.5 nM | 
4.7 nM | Cc1c(C(=O)N(c2ccc(O)cc2)c2cnn(C)c2)cc(-c2cc3c(cc2C(=O)N2Cc4ccccc4C[C@H]2C)OCO3)n1CCN [Example 30, 1-(2-Aminoethyl)-N-(4-hydroxyphenyl)-2-methyl-5-(6-{[(3R)-3-methyl-3,4-dihydroisoquinolin-2(1H)-yl]carbonyl}-1,3-benzodioxol-5-yl)-N-(1-methyl-1H-pyrazol-4-yl)-1H-pyrrole-3-carboxamide hydrochloride] | 771 nM | 
7.2 nM | COc1ccc(C(=O)N2Cc3ccccc3C[C@H]2C)c(-c2cc(C(=O)N(c3ccc(O)cc3)c3cnn(C)c3)c(C)n2C)c1 [Example 31, N-(4-Hydroxyphenyl)-5-(5-methoxy-2-{[(3R)-3-methyl-3,4-dihydroisoquinolin-2(1H)-yl]carbonyl}phenyl)-1,2-dimethyl-N-(1-methyl-1H-pyrazol-4-yl)-1H-pyrrole-3-carboxamide] | 89.3 nM | 
10.9 nM | Cc1c(C(=O)N(c2ccc(O)cc2)c2ccc(F)cc2)cc(-c2cc(Cl)ccc2C(=O)N2Cc3ccccc3C[C@H]2CN2CCOCC2)n1C [Example 33, 5-(5-Chloro-2-{[(3S)-3-(morpholin-4-ylmethyl)-3,4-dihydroisoquinolin-2(1H)-yl]carbonyl}phenyl)-N-(4-fluorophenyl)-N-(4-hydroxyphenyl)-1,2-dimethyl-1H-pyrrole-3-carboxamide hydrochloride] | 57.8 nM | 
8.2 nM | Cc1c(C(=O)N(c2ccc(O)cc2)c2cccc(F)c2)cc(-c2cc(Cl)ccc2C(=O)N2Cc3ccccc3C[C@H]2CN2CCOCC2)n1C [Example 34, 5-(5-Chloro-2-{[(3S)-3-(morpholin-4-ylmethyl)-3,4-dihydroisoquinolin-2(1H)-yl]carbonyl}phenyl)-N-(3-fluorophenyl)-N-(4-hydroxyphenyl)-1,2-dimethyl-1H-pyrrole-3-carboxamide hydrochloride] | 47 nM | 
50 nM | Cc1c(C(=O)N(C)c2ccc(O)cc2)cc(-c2ccc(CNC(=O)COc3ccccc3)cc2C(=O)N2Cc3ccccc3C[C@H]2C)n1C [Example 35, N-(4-Hydroxyphenyl)-N,1,2-trimethyl-5-(2-{[(3R)-3-methyl-3,4-dihydroisoquinolin-2(1H)-yl]carbonyl}-4-{[(phenoxyacetyl)amino]methyl}phenyl)-1H-pyrrole-3-carboxamide] | 560 nM | 
71.4 nM | CCNC(=O)NCc1ccc(-c2cc(C(=O)N(C)c3ccc(O)cc3)c(C)n2C)c(C(=O)N2Cc3ccccc3C[C@H]2C)c1 [Example 36, 5-(4-{[(Ethylcarbamoyl)amino]methyl}-2-{[(3R)-3-methyl-3,4-dihydroisoquinolin-2(1H)-yl]carbonyl}phenyl)-N-(4-hydroxyphenyl)-N,1,2-trimethyl-1H-pyrrole-3-carboxamide] | > 600 nM | 
60.4 nM | Cc1c(C(=O)N(C)c2ccc(O)cc2)cc(-c2ccc(CNC(=O)NCc3ccccc3)cc2C(=O)N2Cc3ccccc3C[C@H]2C)n1C [Example 37, 5-(4-{[(Benzylcarbamoyl)amino]methyl}-2-{[(3R)-3-methyl-3,4-dihydroisoquinolin-2(1H)-yl]carbonyl}phenyl)-N-(4-hydroxyphenyl)-N,1,2-trimethyl-1H-pyrrole-3-carboxamide] | > 600 nM | 
7.5 nM | Cc1c(C(=O)N(c2ccccc2)c2ccc(O)cc2)cc(-c2cc(Cl)ccc2C(=O)N2Cc3ccccc3C[C@H]2CO)n1C [Example 38, 5-(5-Chloro-2-{[(3S)-3-(hydroxymethyl)-3,4-dihydroisoquinolin-2(1H)-yl]carbonyl}phenyl)-N-(4-hydroxyphenyl)-1,2-dimethyl-N-phenyl-1H-pyrrole-3-carboxamide] | 134 nM | 
7.2 nM | Cc1c(C(=O)N(c2ccc(O)cc2)c2cnn(C)c2)cc(-c2cc3c(cc2C(=O)N2Cc4ccccc4C[C@H]2C)OCO3)n1C [Example 39, N-(4-Hydroxyphenyl)-1,2-dimethyl-5-(6-{[(3R)-3-methyl-3,4-dihydroisoquinolin-2(1H)-yl]carbonyl}-1,3-benzodioxol-5-yl)-N-(1-methyl-1H-pyrazol-4-yl)-1H-pyrrole-3-carboxamide] | 19.7 nM | 
10 nM | Cc1c(C(=O)N(c2ccc(O)cc2)c2cccc(F)c2)cc(-c2cc3c(cc2C(=O)N2Cc4ccccc4C[C@H]2C)OCO3)n1C [Example 41, N-(3-Fluorophenyl)-N-(4-hydroxyphenyl)-1,2-dimethyl-5-(6-{[(3R)-3-methyl-3,4-dihydroisoquinolin-2(1H)-yl]carbonyl}-1,3-benzodioxol-5-yl)-1H-pyrrole-3-carboxamide] | 22.6 nM | 

Structure (SMILES) | IC50 (Bcl-2 protein) | IC50 ([1]; RS4-11, 48 h) | IC50 [1]
Cc1c(C(=O)N(C)c2ccc(O)cc2)cc(-c2ccc(CNC(=O)Oc3ccccc3)cc2C(=O)N2Cc3ccccc3C[C@H]2C)n1C [Example 32, Phenyl (4-{4-[(4-hydroxyphenyl)(methyl)carbamoyl]-1,5-dimethyl-1H-pyrrol-2-yl}-3-{[(3R)-3-methyl-3,4-dihydroisoquinolin-2(1H)-yl]carbonyl}benzyl)-carbamate] | 13.3 nM |  | 240 nM
Cc1c(C(=O)N(C)c2ccc(O)cc2)cc(-c2cc(CNC(=O)Oc3ccccc3)ccc2C(=O)N2Cc3ccccc3C[C@H]2C)n1C [Example 40, Phenyl (3-{4-[(4-hydroxyphenyl)(methyl)carbamoyl]-1,5-dimethyl-1H-pyrrol-2-yl}-4-{[(3R)-3-methyl-3,4-dihydroisoquinolin-2(1H)-yl]carbonyl}benzyl)-carbamate] | 64.4 nM |  | 431 nM

Source: patent publication US9108983B2, “Pyrrole compounds, a process for their preparation and pharmaceutical compositions containing them” (LES LABORATOIRES SERVIER, priority 2013, dated 2015)
